Measured values as given in ChEMBL document CHEMBL1811878, “Heteroatom-substituted analogues of orphan nuclear receptor small heterodimer partner ligand and apoptosis inducer (E)-4-[3-(1-Adamantyl)-4-hydroxyphenyl]-3-chlorocinnamic acid” (J Med Chem, 2011).

How the values were obtained:
[1] = target: T1, Retinoic acid receptor beta (Homo sapiens) (UniProt P10826); test: Transcriptional activation of human RARbeta at 0.1 uM by luciferase reporter gene assay relative to control
T1 sequence (whole entry): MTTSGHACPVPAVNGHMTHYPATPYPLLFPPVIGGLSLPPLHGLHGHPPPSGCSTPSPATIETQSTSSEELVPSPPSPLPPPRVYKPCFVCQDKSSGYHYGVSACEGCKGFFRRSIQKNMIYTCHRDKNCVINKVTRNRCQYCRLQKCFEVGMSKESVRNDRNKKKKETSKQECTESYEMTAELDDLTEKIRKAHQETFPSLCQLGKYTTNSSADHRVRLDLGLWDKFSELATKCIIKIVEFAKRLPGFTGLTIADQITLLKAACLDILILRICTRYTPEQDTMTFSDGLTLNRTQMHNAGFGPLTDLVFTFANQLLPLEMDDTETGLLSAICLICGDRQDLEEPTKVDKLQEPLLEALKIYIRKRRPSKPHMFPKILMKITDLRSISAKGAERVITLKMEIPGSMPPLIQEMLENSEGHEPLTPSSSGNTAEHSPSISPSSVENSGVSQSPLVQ

[2] = target: T1, Retinoic acid receptor beta (Homo sapiens); test: Transcriptional activation of human RARbeta at 1 uM by (TREpal)2-tk-CAT reporter gene assay
[3] = Induction of apoptosis in retinoid-resistant p53 null human HL60R cells assessed as DNA fragmentation at 1 uM after 24 hrs by acridine orange staining method; type: functional
[4] = target: T2, Retinoic acid receptor alpha (Homo sapiens) (UniProt P10276); test: Transcriptional activation of human RARalpha at 0.1 uM by luciferase reporter gene assay relative to control
T2 sequence (whole entry): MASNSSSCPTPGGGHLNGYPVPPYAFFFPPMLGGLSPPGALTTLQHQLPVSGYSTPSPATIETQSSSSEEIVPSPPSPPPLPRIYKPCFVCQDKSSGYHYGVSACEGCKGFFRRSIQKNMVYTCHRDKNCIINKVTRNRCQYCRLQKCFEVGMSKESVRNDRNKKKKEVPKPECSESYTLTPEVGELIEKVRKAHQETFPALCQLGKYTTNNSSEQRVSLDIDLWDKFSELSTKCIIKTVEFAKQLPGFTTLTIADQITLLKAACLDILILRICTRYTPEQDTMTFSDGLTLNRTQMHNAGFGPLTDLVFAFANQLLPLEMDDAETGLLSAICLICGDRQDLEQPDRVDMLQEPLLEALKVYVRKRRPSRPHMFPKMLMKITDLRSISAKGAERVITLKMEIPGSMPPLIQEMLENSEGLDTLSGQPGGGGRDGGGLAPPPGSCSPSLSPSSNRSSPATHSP

[5] = target: T3, Retinoic acid receptor gamma (Homo sapiens) (UniProt P13631); test: Transcriptional activation of human RARgamma at 0.1 uM by luciferase reporter gene assay relative to control
T3 sequence (whole entry): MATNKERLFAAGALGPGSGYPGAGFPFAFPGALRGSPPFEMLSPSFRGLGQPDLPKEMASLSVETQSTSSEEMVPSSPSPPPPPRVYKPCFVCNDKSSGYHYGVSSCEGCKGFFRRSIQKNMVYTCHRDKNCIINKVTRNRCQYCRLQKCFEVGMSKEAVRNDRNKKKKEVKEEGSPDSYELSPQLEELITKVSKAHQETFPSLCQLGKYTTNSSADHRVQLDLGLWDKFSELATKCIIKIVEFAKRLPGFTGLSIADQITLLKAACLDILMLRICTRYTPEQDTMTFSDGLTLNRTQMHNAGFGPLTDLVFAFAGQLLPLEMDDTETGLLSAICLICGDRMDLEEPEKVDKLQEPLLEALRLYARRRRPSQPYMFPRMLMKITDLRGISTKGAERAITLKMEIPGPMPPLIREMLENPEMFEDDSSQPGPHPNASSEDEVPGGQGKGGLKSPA

[6] = Induction of apoptosis in retinoid-resistant p53 null human HL60R cells assessed as DNA fragmentation at 0.1 uM after 24 hrs by acridine orange staining method; type: functional
[7] = target: T3, Retinoic acid receptor gamma (Homo sapiens); test: Transcriptional activation of human RARgamma at 1 uM by (TREpal)2-tk-CAT reporter gene assay
[8] = target: T2, Retinoic acid receptor alpha (Homo sapiens); test: Transcriptional activation of human RARalpha at 1 uM by (TREpal)2-tk-CAT reporter gene assay
[9] = system: OVCAR-3; test: Antiproliferative activity against human OVCAR3 cell; type: functional, cell-based

Row | Structure (SMILES) | fold change (FC) [1] | Activity [2] [%] | Activity [3] [%] | fold change (FC) [4] | fold change (FC) [5] | Activity [6] [%] | Activity [7] [%] | Activity [8] [%] | IC50 [9] [nM]
1 | O=C(O)/C=C/c1ccc(-c2ccc(O)c(C34CC5CC(CC(C5)C3)C4)c2)cc1 [ADAROTENE] | 6 | 85 | 98 | 6 | 25 | 90 | 103 | 8 | –
2 | O=C(O)c1ccc2cc(-c3ccc(O)c(C45CC6CC(CC(C6)C4)C5)c3)ccc2c1 [O-DEMETHYLATED ADAPALENE] | 20 | 78 | 98 | 10 | 50 | 73 | 88 | 21 | 130
